Values of other authors, collected in US7122567B2, “Heterocyclic amide derivatives having glycogen phosphorylase inhibitory activity” (AstraZeneca AB, priority 2002, dated 2006).

How the values were obtained:
[1] = conscious dogs, following a glucagon challenge
[2] = db/db and ob/ob mice following treatment

## CCN1C(C)=C(C(=O)OC(C)C)C(c2ccccc2Cl)C2=C1COC2=O (centres unmarked) [Bay R 3401]
[1]
  arterial plasma glucose: reduced significantly
  hepatic glucose output: reduced significantly

## CN(C)C(=O)[C@H](O)[C@H](Cc1ccccc1)NC(=O)c1cc2cc(Cl)ccc2[nH]1 [CP91149]
hepatocytes
  glucagon stimulated glycogenolysis: reduce
  glucose output: reduce
[2]
  plasma glucose concentration: reduced, in a dose related manner

## O=C(N[C@@H](Cc1ccc(F)cc1)C(=O)N1CCC(O)CC1)c1cc2cc(Cl)ccc2[nH]1 [CP320626]
hepatocytes
  glucagon stimulated glycogenolysis: reduce
  glucose output: reduce
[2]
  plasma glucose concentration: reduced, in a dose related manner
